The values below are quoted from earlier work in patent US20190156929A1, “METHODS OF IMPROVING PATIENT COMPLIANCE TO TREAT CONTRAST-INDUCED INJURY” (Saghmos Therapeutics, Inc., priority 2017, published 2019).

Structures are written as SMILES.

The subject of the data set is contrast-induced nephropathy in patients undergoing coronary angiography/angioplasty. To be noted: four published Phase 2 trials; compared with isotonic saline; patients e.g. with high serum creatinine levels.

Turning to `COc1ccc(CN2CCNCC2)c(OC)c1OC` [Trimetazidine], the “reduction of the risk of contrast-induced nephropathy (CIN)” value was “more effective than isotonic saline in reducing the risk of contrast-induced nephropathy (CIN)”.
